One series concerns tubulin. Briefly: Tubulin polymerization assay. Particulars: tested at 20 μM and 5 μM. It is filed as biochemical. Set-up: key: a compound showing 0 to 50% inhibition at 20 μM is reported as score 1; Score 2 compounds are defined as compound showing more than 50% inhibition at 20 μM and less than 50% inhibition at 5 μM; a compound showing more than 50% inhibition at 5 μM is reported as score 3. In short, it runs like this:
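Cytoskeleton kit tubulin was run in a 10 µl final volume at 37 °C, with fluorescence read every minute for 1 h. Polymerization was taken as the maximum slope (4-point linear regression) and expressed as % of no-compound control. Compounds were tested at 20 µM, then at 5 µM if inhibition exceeded 50%, and scored by % inhibition.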

In another series the test system is HCT116 cells. The series is described as follows: Mitotic arrest assay on HCT116 cells (phospho-histone H3 Ser10). It is filed as cell-based, human. The note with it: lowest active dose; for Mitotic arrest HCT116 LAD: HCT116 cells, the values are: pLAD (−log M lowest active dose); for minimal effective concentration: Homo sapiens, HCT-116, HCT116 cells, read-out: Mitotic arrest HCT116 LAD (converted). In short, it runs like this:
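Seeded overnight, then compound-treated 6 h at 37 °C (≤0.1% DMSO); fixed, stained with Alexa Fluor 488 anti-phospho-H3 (Ser10) plus Hoechst 33342, imaged on InCell Analyzer 1000. Blank-subtracted signal divided by SD (sigma), triplicate; value is lowest dose giving sigma >5 (LAD).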

Data on 24 molecules can be found in patent US8778966B2, “Quinolinone derivatives as PARP and tank inhibitors” (Janssen Pharmaceutica, NV, priority 2007, dated 2014).

Broadly, the melting point is the temperature, or range, at which the solid turns liquid. `CCc1cc2ccc(C(C)(C#N)Cc3cccc(C#N)n3)cc2[nH]c1=O` (single isomer, unassigned) [Compound 206] returned a melting point of 121 °C. The tubulin polymerisation score with tubulin is listed as 1 (a compound showing 0 to 50% inhibition at 20 μM is reported as score 1). Besides, in the series on HCT116 cells, the Mitotic arrest HCT116 LAD is 5.
For `CCc1cc2ccc(C(C)(C#N)Cc3cccc(C#N)n3)cc2[nH]c1=O` (single isomer, unassigned) [Compound 207] the same measures were 133 °C, 3 (a compound showing more than 50% inhibition at 5 μM is reported as score 3) and 7.
For the molecule `C#Cc1cccc(C[C@](C)(C#N)c2ccc3cc(CC)c(=O)[nH]c3c2)c1` [Compound 2], the melting point is 125 °C. In addition, in the series on tubulin, the tubulin polymerisation score was 1 (a compound showing 0 to 50% inhibition at 20 μM is reported as score 1). Besides, the minimal effective concentration in the series with HCT116 cells was 10 µM.
Consider `C#Cc1cccc(C[C@@](C)(C#N)c2ccc3cc(CC)c(=O)[nH]c3c2)c1` [Compound 3], for which the melting point was 128 °C. This molecule also came in with a tubulin polymerisation score in the series with tubulin of 2. The minimal effective concentration in the series on HCT116 cells was 0.01 µM.
The corresponding values for `CCc1cc2ccc(C(C#N)(CC)Cc3ccccc3)cc2[nH]c1=O` (centres unmarked) [Compound 32] are 198 °C, 1 (a compound showing 0 to 50% inhibition at 20 μM is reported as score 1) and 1 µM.
The corresponding values for `COc1ccccc1-c1nc(CC(C)(C#N)c2ccc3cc(C)c(=O)[nH]c3c2)no1` (centres unmarked) [Compound 33] are 130 °C, 1 (a compound showing 0 to 50% inhibition at 20 μM is reported as score 1) and 1 µM.
The corresponding values for `Cc1cc2ccc([C@](C)(C#N)Cc3cccc(C#N)c3)cc2[nH]c1=O` [Compound 36] are 226 °C, 1 (a compound showing 0 to 50% inhibition at 20 μM is reported as score 1) and 0.1 µM.
Molecule `Cc1cc2ccc(C(C)(C#N)Cc3cccc(Cl)c3)cc2[nH]c1=O` (centres unmarked) [Compound 37] gave a melting point of 242 °C. In addition, the tubulin polymerisation score in the series with tubulin is recorded as 1 (a compound showing 0 to 50% inhibition at 20 μM is reported as score 1). In the series with HCT116 cells, the minimal effective concentration is 0.1 µM.
Turning to `CCc1cc2ccc(C(C)(C#N)Cc3cccc(CCC#N)c3)cc2[nH]c1=O` (centres unmarked) [Compound 169], the melting point amounted to 149 °C. This molecule displayed a Mitotic arrest HCT116 LAD with HCT116 cells of 6.
Turning to `C=Cc1cccc(CC(C)(C#N)c2ccc3cc(CC)c(=O)[nH]c3c2)c1` (centres unmarked) [Compound 172], the melting point was 130 °C. Also, the minimal effective concentration in the series on HCT116 cells was 0.3 µM.
The corresponding values for `CCc1cc2cc(F)c(C(C)(C#N)Cc3cccc(C#N)c3)cc2[nH]c1=O` (centres unmarked) [Compound 175] are 202 °C and 0.3 µM.
Molecule `CCc1c(C)c2ccc(C(C)(C#N)Cc3cccc(C#N)c3)cc2[nH]c1=O` (centres unmarked) [Compound 181] registered a melting point of 204 °C. The minimal effective concentration in the series with HCT116 cells is 0.3 µM.
Take `CCc1cc2cc(OCCOC)c(C(C)(C#N)Cc3cccc(C#N)c3)cc2[nH]c1=O` (centres unmarked) [Compound 182]: the melting point was found to be 130 °C. The minimal effective concentration in the series on HCT116 cells is 10 µM.
Take `CCc1cc2ccc(C(C)(C#N)Cc3cccc(C#CCO)c3)cc2[nH]c1=O` (centres unmarked) [Compound 183]: the melting point came to 182 °C. Also, in the series with HCT116 cells, the minimal effective concentration is 0.1 µM.
For `CCc1cc2ccc(C(F)(C#N)Cc3ccccc3)cc2[nH]c1=O` (centres unmarked) [Compound 187] the same measures were 176 °C and 3 µM.
For `CCc1cc2ccc(C(C)(C#N)CN(C)Cc3ccccc3)cc2[nH]c1=O` (centres unmarked) [Compound 189] the same measures were 136 °C and 1 µM.
`CCc1cc2ccc(C(C)(C#N)C(C)c3ccccc3)cc2[nH]c1=O` (centres unmarked) [Compound 198] returned a melting point of 198 °C. For the same molecule, the minimal effective concentration with HCT116 cells was 0.3 µM.
For `CCc1cc2ccc([C@](C)(C#N)[C@@H](C)c3ccccc3)cc2[nH]c1=O` [Compound 199] the same measures were 250 °C and 3 µM.
For `C#Cc1cccc(CC(C)(C#N)c2ccc3cc(CC)c(=O)[nH]c3c2)n1` (centres unmarked) [Compound 211] the same measures were 140 °C and 1 µM.
The corresponding values for `CCc1cc2ccc(C(C)(C#N)Cc3cccc(N(C)C)n3)cc2[nH]c1=O` (centres unmarked) [Compound 213] are 115 °C and 0.3 µM.
For `CCc1cc2ccc(C(C)(C#N)Cc3cccc(I)n3)cc2[nH]c1=O` (centres unmarked) [Compound 214], the melting point stood at 131 °C. Also, in the series with HCT116 cells, the minimal effective concentration is 0.3 µM.
`CCOC(=O)c1cccc(CC(C)(C#N)c2ccc3cc(CC)c(=O)[nH]c3c2)n1` (centres unmarked) [Compound 215] showed a melting point of 60 °C. The minimal effective concentration in the series on HCT116 cells is 1 µM.
The corresponding values for `CCc1cc2ccc(C(C)(C#N)Cc3cccc(COC)n3)cc2[nH]c1=O` (centres unmarked) [Compound 216] are 153 °C and 1 µM.
For `CCc1cc2ccc(C(C)(C#N)Cc3cccc(CN)n3)cc2[nH]c1=O` (centres unmarked) [Compound 221] the same measures were 65 °C and 3 µM.
